We go through 20 compounds from paper PMC9920986 (Molecules, 2023).

Read-outs that look alike come from different tables or passages of the source.

The subject of one series is NQO2. Conditions: cited from earlier work; for IC50: Figure 1.
For series [1], the target named is T1, human recombinant NRH:quinone oxidoreductase (NQO2) (Homo sapiens, UniProt P16083).
T1 construct: purchased Sigma Q0380
T1 sequence (P16083 1-231): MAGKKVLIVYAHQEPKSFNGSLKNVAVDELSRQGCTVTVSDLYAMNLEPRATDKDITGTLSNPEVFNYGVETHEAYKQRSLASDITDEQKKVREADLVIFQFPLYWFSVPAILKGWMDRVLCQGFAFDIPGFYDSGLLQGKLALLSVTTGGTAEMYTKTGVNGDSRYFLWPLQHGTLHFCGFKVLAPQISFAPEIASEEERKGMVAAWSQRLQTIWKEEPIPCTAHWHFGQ
The experiment in a line: biochemical. Particulars: for inhibition at 10 µM: read-out: NQO2 Inhibition, %. The protocol: The inhibition activity of all synthesized compounds at a concentration of 10 µM was preliminarily tested in vitro using human recombinant NRH:quinone oxidoreductase (NQO2).
The activity of recombinant human NQO2 (Sigma #Q0380, St. Louis, […], USA) was evaluated kinetically using menadione and N-benzyl-dihydronicotinamide (BNAH) as the substrate and co-substrate, respectively. All reagents and test compounds were dissolved in 50 mM Hepes-KOH (pH 7.4) containing 1 mM of β-octyl-D-glucopyranoside, 0.1 mg/mL BSA and 1 μM FAD. […] The solutions of the test compounds were pre-incubated for 5 min with 50 μL of human recombinant NQO2 (final concentration 42 ng/mL). Then, 25 μL of menadione was introduced at a final concentration of 100 μM. The reaction was started with 25 μL of 100 μM BNAH. The fluorescence of the co-substrate BNAH was followed at wavelengths of 370/440 nm at 37 °C using an Infinite M200 Pro microplate reader (Tecan, Grödig, Austria). The fluorescence data was fit according to a one-phase decay nonlinear regression to obtain slope values with Prism 8.0 (GraphPad Inc., San Diego, CA, USA). The activity in sample wells were normalized against negative control and enzyme-blank samples.

Series [2] can be described thus: Antiproliferative assay (MTT colorimetric test, 72 h). It is filed as cell-based. Conditions: human, n.a. = not active, read-out: A549, CC50. From the text: (§1) The cytotoxicity of the synthesized oxindoles was studied using the A549 cell line in which the levels of NQO2 are increased (Table 4). […] The cytotoxicity of the compounds may be due to the inhibition of other enzymes associated with the activation of apoptosis in cancer cells, for example GSK3b or tyrosine kinases, or with the general non-specific toxicity of these compounds. Thus, the influence of NQO2 on A549 cell viability has not been established.
(§2) The A549 cells were maintained in F12-K (Gibco, Paisley, UK) supplemented with 10% fetal bovine serum (FBS, Gibco, UK), penicillin (100 UI mL^−1), streptomycin (100 µg mL^−1) and GlutaMax (2 mM, Gibco, UK). All cells line were cultured under a humidified atmosphere of 95% air/5% CO2 at 37 °C. Subconfluent monolayers, in the log growth phase, were harvested by a brief treatment with TrypLE Express solution (Gibco, UK) in phosphate-buffered saline (PBS, Capricorn Scientific, Ebsdorfergrund, Germany) and washed three times in serum-free PBS. The number of viable cells was determined by trypan blue exclusion.
(§3) The effects of the synthesized compounds on cell viability were determined using the MTT colorimetric test. All examined cells were diluted with the growth medium to 3.5 × 10^4 cells per mL and the aliquots (7 × 10^3 cells per 200 μL) were placed in individual wells in 96-multiplates (Eppendorf, Germany) and incubated for 24 h. […] After incubation, the cells were then treated with 40 μL MTT solution (3-(4,5-dimethylthiazol-2-yl)-2,5-diphenyltetrazolium bromide, 5 mg mL^−1 in PBS) and incubated for 4 h. After an additional 4 h incubation, the medium with MTT was removed and DMSO (150 μL) was added to dissolve the formazan crystals. The plates were shaken for 10 min. The optical density of each well was determined at 560 nm using a microplate reader GloMax Multi+ (Promega, Madison, WI, USA). Each of the tested compounds was evaluated for cytotoxicity in three separate experiments.
(In general: Tetrazolium assays rely on reduction of a dye to a coloured formazan, in cell work by metabolically active cells.)

In another series the test system is A549 cell line. The description is as above. It is filed as cell-based. Conditions: n.a. = not active.
Text: as §1, §2, §3

Where [3] appears, read: recombinant human NQO2, 100 μM menadione, 100 μM BNAH, read-out: NQO2 IC50 ± SEM.

A word on the IC50: it is the concentration that gives 50% inhibition. `COC(=O)Nc1ccc2[nH]cc(CCNC(C)=O)c2c1` [MCA-NAT]: the IC50 in the series with NQO2 is 0.037 µM.

For orientation: inhibition means how much of the control response was suppressed. Usually CC50 stands for the concentration at which the toxic effect on the cells reaches its halfway point. Regarding `COc1ccc(C=C2C(=O)Nc3ccccc32)cc1` [Compound 20, 3-((4-methoxyphenyl)methylene)-2-oxindole], in series [1], the inhibition at 10 µM stood at 40.8%. The CC50 at 72 h in series [2] came to 54.8 µM.

As to `COc1cc(C=C2C(=O)Nc3ccccc32)cc(OC)c1OC` [Compound 23, (E,Z)-3-(3,4,5-Trimethoxybenzylidene)-2-oxindole], in series [1] (setting [3]), the IC50 came to 1.6 ± 0.14 µM. In addition, the CC50 at 72 h in series [2] came out at 25.7 µM.

Take `O=C1Nc2ccc(Br)cc2C1=Cc1ccc(Br)cc1` (mixture of isomers) [Compound 31, 3-(4-bromobenzylidene)-5-bromo-2-oxindole]: the inhibition at 10 µM in series [1] amounted to 68.6%. The CC50 at 72 h in series [2] is 242 ± 3.19 µM.

As for `O=C1Nc2ccccc2C1=Cc1ccco1` [Compound 34, 3-(2-furylmethylidene)-2-oxindole], the inhibition at 10 µM in series [1] stood at 59.9%. Moreover, in series [2], the CC50 at 72 h worked out at 595 ± 25.4 µM.

Regarding `CC(=O)Nc1ccc2c(c1)C(=Cc1ccccn1)C(=O)N2` [Compound 5, (E,Z)-3-(2-Pyridinylmethylidene)-5-acetamido-2-oxindole], the IC50 in series [1] was found to be 41.1 ± 2.44 µM. In addition, in series [2], the CC50 at 72 h is 136 µM.

On to `Cc1ccc(C(=O)CC2(O)C(=O)Nc3ccccc32)cc1` (stereo not shown) [Compound 52, 3-hydroxy-3-[2-(4-methylphenyl)-2-oxoethyl]-2-oxindole], for which, in series [1] (setting [3]), the IC50 is more than 50 µM. Besides, the CC50 at 72 h in series [2] was determined as 171 ± 13.4 µM.

`O=C1Nc2ccccc2/C1=C\c1ccccn1` [Compound 1, (E)-3-(2-pyridinylmethylidene)-2-oxindole]: in series [1], the half-maximal inhibitory concentration (IC50) was more than 50 µM. Further, in series [2], the CC50 at 72 h is 48 ± 4.42 µM.

As to `CC(=O)Nc1ccc2c(c1)C(=Cc1cccc(O)c1)C(=O)N2` [Compound 13, 3-(3-hydroxybenzylidene)-5-acetylamino-2-oxindole], the IC50 in series [1] is 0.64 ± 0.04 µM. In addition, the CC50 at 72 h in series [2] stood at 176 ± 4.76 µM.

For the compound `O=C1Nc2ccccc2C1=Cc1ccncc1` [Compound 10, 3-(4-pyridinylmethylidene)-2-oxindole], the IC50 in series [1] (setting [3]) was more than 50 µM. For the same compound, in series [2], the CC50 at 72 h turned out to be 80.3 ± 9.87 µM.

Regarding “(E,Z)-3-(4-Fluorobenzylidene)-2-oxindole [Compound 33]”, the “NQO2 Inhibition, %” value in series [1] (inhibition at 10 µM concentration) worked out at 19.46%. Also, the IC50 in series [1] (setting [3]) is more than 50 µM. In addition, in the series on A549 cell line, the midpoint of cytotoxicity, the CC50, lay at 38.6 ± 10.4 µM.

`COc1ccc(C=C2C(=O)Nc3ccc(NC(=O)c4ccccc4)cc32)cc1` [Compound 21, (E,Z)-3-(4-Methoxybenzylidene)-5-benzoylamino-2-oxindole]: in series [1] (setting [3]), the IC50 is more than 50 µM. The CC50 at 72 h in series [2] was found to be 42.3 ± 8.3 µM.

Turning to `O=C1Nc2ccc(Br)cc2C1=Cc1ccccn1` [Compound 3, 5-bromo-3-(2-pyridinylmethylidene)-2-oxindole], the IC50 in series [1] (setting [3]) was more than 50 µM. In addition, the CC50 at 72 h in series [2] is 90.6 ± 1.5 µM.

For the compound `O=C1Nc2ccc([N+](=O)[O-])cc2C1=Cc1cccnc1` [Compound 9, 5-nitro-3-(3-pyridinylmethylidene)-2-oxidole], the IC50 in series [1] was more than 50 µM. In addition, the CC50 at 72 h in series [2] came out at 429 ± 24 µM.

For the compound `O=C1Nc2ccc(Br)cc2C1=Cc1ccncc1` [Compound 11, 5-bromo-3-(4-pyridinylmethylidene)-2-oxindole], the inhibition at 10 µM in series [1] turned out to be 41.9%. The CC50 at 72 h in series [2] is 22.3 ± 1.42 µM.

For the compound `O=C1Nc2ccccc2C1=Cc1cccs1` [Compound 37, 3-(2-thienylmethylidene)-2-oxindole], the inhibition at 10 µM in series [1] came to 38.1%. In series [2], the CC50 at 72 h amounted to 491 ± 19.9 µM.

For `COc1cc(C=C2C(=O)Nc3ccc(NC(C)=O)cc32)cc(OC)c1OC` [Compound 24, 3-(3,4,5-trimethoxybenzylidene)-5-acetylamino-2-oxindole], the IC50 in series [1] (setting [3]) stood at 0.37 ± 0.01 µM. In addition, the CC50 at 72 h in series [2] came to 149 ± 2.63 µM.

As for `O=C1Nc2ccc([N+](=O)[O-])cc2C1=Cc1ccco1` [Compound 36, 5-nitro-3-(2-furylmethylidene)-2-oxindole], the inhibition at 10 µM in series [1] was 59.5%. For the same compound, in series [2], the CC50 at 72 h was 329 ± 17 µM.

Take `COc1ccc2[nH]cc(CCNC(C)=O)c2c1` [Melatonin]: in the series on NQO2, the IC50 was 6 µM and the “NQO2 inhibition concentration range” value was approximately 50 µM.

With `COC(=O)Nc1ccc2c(c1)C(=Cc1ccc(O)cc1)C(=O)N2` [Compound 17, 3-(4-hydroxybenzylidene)-5-(methoxycarbonylamino)-2-oxindole], the concentration for half-maximal inhibition (IC50) in series [1] (setting [3]) is 0.44 ± 0.02 µM. In series [2], the CC50 at 72 h was found to be 44.43 ± 0.29 µM.
